In ChEMBL document CHEMBL1201861, “Genomics of Drug Sensitity in Cancer screening data, Wellcome Trust Sanger Institute”:

How the values were obtained:
Assay in all cases: cells
LB1047-RCC = assay type: functional, cell-based, Homo sapiens; settings: Homo sapiens, LB1047-RCC;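 further: inhibition of cell growth, determined with a cell viability assay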
Description: SANGER: Inhibition of human LB1047-RCC cell growth in a cell viability assay.

SNU-5 = assay type: functional, cell-based, Homo sapiens; settings: Homo sapiens, SNU-5;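 further: cell viability readout used to measure growth inhibition in human NCI-SNU-5 cells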
Description: SANGER: Inhibition of human NCI-SNU-5 cell growth in a cell viability assay.

MC116 = assay type: functional, cell-based, Homo sapiens; settings: Homo sapiens, MC116;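 further: growth inhibition of MC116 cells, read out with a cell viability assay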
Description: SANGER: Inhibition of human MC116 cell growth in a cell viability assay.

NCI-H2170 = assay type: functional, cell-based, Homo sapiens; settings: Homo sapiens, NCI-H2170;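 further: cell viability assay measuring growth inhibition of human NCI-H2170 cancer cells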
Description: SANGER: Inhibition of human NCI-H2170 cell growth in a cell viability assay.

HCE-4 = assay type: functional, cell-based, Homo sapiens; settings: Homo sapiens, HCE-4;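 further: cell viability assay measuring inhibition of growth in the human HCE-4 cell line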
Description: SANGER: Inhibition of human HCE-4 cell growth in a cell viability assay.

D-392MG = assay type: functional, cell-based, Homo sapiens; settings: Homo sapiens, D-392MG
A204 = assay type: functional, cell-based, Homo sapiens; settings: Homo sapiens, A204;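 further: growth inhibition of human A204 cells, read out with a cell viability assay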
Description: SANGER: Inhibition of human A204 cell growth in a cell viability assay.

ACHN = assay type: functional, cell-based, Homo sapiens; settings: Homo sapiens, ACHN;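 further: cell viability read-out used to gauge how strongly growth of human ACHN cells is suppressed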
Description: SANGER: Inhibition of human ACHN cell growth in a cell viability assay.

SK-MEL-30 = assay type: functional, cell-based, Homo sapiens; settings: Homo sapiens, SK-MEL-30;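 further: growth inhibition of SK-MEL-30 cells, determined with a cell viability assay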
Description: SANGER: Inhibition of human SK-MEL-30 cell growth in a cell viability assay.

M14 = assay type: functional, cell-based, Homo sapiens; settings: Homo sapiens, M14;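 further: growth inhibition of M14 cells, read out with a cell viability assay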
Description: SANGER: Inhibition of human M14 cell growth in a cell viability assay.

KG-1 = assay type: functional, cell-based, Homo sapiens; settings: Homo sapiens, KG-1;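 further: growth inhibition of KG-1 cells, read out by a cell viability assay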
Description: SANGER: Inhibition of human KG-1 cell growth in a cell viability assay.

SK-PN-DW = assay type: functional, cell-based, Homo sapiens; settings: Homo sapiens, SK-PN-DW;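 further: growth inhibition measured with a viability assay on these cells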
Description: SANGER: Inhibition of human SK-PN-DW cell growth in a cell viability assay.

NCI-H358 = assay type: functional, cell-based, Homo sapiens; settings: Homo sapiens, NCI-H358;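 further: growth inhibition of NCI-H358 human cells, read out with a cell viability assay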
Description: SANGER: Inhibition of human NCI-H358 cell growth in a cell viability assay.

RVH-421 = assay type: functional, cell-based, Homo sapiens; settings: Homo sapiens, RVH-421
Description: SANGER: Inhibition of human RVH-421 cell growth in a cell viability assay.

CAL-33 = assay type: functional, cell-based, Homo sapiens; settings: Homo sapiens, CAL-33;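 further: growth inhibition of CAL-33 cells, read out with a cell viability assay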
Description: SANGER: Inhibition of human CAL-33 cell growth in a cell viability assay.

SNB-75 = assay type: functional, cell-based, Homo sapiens; settings: Homo sapiens, SNB-75;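 further: cell viability assay measuring growth inhibition of human SNB-75 cells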
Description: SANGER: Inhibition of human SNB75 cell growth in a cell viability assay.

L-363 = assay type: functional, cell-based, Homo sapiens; settings: Homo sapiens, L-363
Description: SANGER: Inhibition of human L-363 cell growth in a cell viability assay.

CP50-MEL-B = assay type: functional, cell-based, Homo sapiens; settings: Homo sapiens, CP50-MEL-B;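 further: growth inhibition of the human cell line, measured with a cell viability read-out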
Description: SANGER: Inhibition of human CP50-MEL-B cell growth in a cell viability assay.

BFTC-909 = assay type: functional, cell-based, Homo sapiens; settings: Homo sapiens, BFTC-909
Description: SANGER: Inhibition of human BFTC-909 cell growth in a cell viability assay.

SW1463 = assay type: functional, cell-based, Homo sapiens; settings: Homo sapiens, SW1463;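 further: growth inhibition of SW1463 cells, determined with a cell viability assay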
Description: SANGER: Inhibition of human SW1463 cell growth in a cell viability assay.

NCI-H1623 = assay type: functional, cell-based, Homo sapiens; settings: Homo sapiens, NCI-H1623;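 further: cell viability assay used as the read-out for growth inhibition of NCI-H1623 cells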
Description: SANGER: Inhibition of human NCI-H1623 cell growth in a cell viability assay.

EW-13 = assay type: functional, cell-based, Homo sapiens; settings: Homo sapiens, EW-13;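 further: growth inhibition of EW-13 cells, read out with a cell viability assay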
Description: SANGER: Inhibition of human EW-13 cell growth in a cell viability assay.

ES7 = assay type: functional, cell-based, Homo sapiens; settings: Homo sapiens, ES7;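 further: growth inhibition of cultured human ES7 cells, read out as cell viability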
Description: SANGER: Inhibition of human ES7 cell growth in a cell viability assay.

MG-63 = assay type: functional, cell-based, Homo sapiens; settings: Homo sapiens, MG-63;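 further: growth inhibition of human MG-63 cells, read out with a cell viability assay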
Description: SANGER: Inhibition of human MG-63 cell growth in a cell viability assay.

SK-N-DZ = assay type: functional, cell-based, Homo sapiens; settings: Homo sapiens, SK-N-DZ;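 further: growth inhibition of the cancer cell line, read out through a viability assay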
Description: SANGER: Inhibition of human SK-N-DZ cell growth in a cell viability assay.

KALS-1 = assay type: functional, cell-based, Homo sapiens; settings: Homo sapiens, KALS-1;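 further: growth inhibition of KALS-1 cells, determined with a cell viability assay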
Description: SANGER: Inhibition of human KALS-1 cell growth in a cell viability assay.

NB7 = assay type: functional, cell-based, Homo sapiens; settings: Homo sapiens, NB7;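 further: growth inhibition of NB7 cells, read out with a cell viability assay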
Description: SANGER: Inhibition of human NB7 cell growth in a cell viability assay.

KYSE-270 = assay type: functional, cell-based, Homo sapiens; settings: Homo sapiens, KYSE-270;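 further: cell growth inhibition measured with a viability assay in the human KYSE-270 line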
Description: SANGER: Inhibition of human KYSE-270 cell growth in a cell viability assay.

P12-Ichikawa = assay type: functional, cell-based, Homo sapiens; settings: Homo sapiens, P12-Ichikawa
SNU-423 = assay type: functional, cell-based, Homo sapiens; settings: Homo sapiens, SNU-423
Description: SANGER: Inhibition of human SNU-423 cell growth in a cell viability assay.

A549 = assay type: functional, cell-based, Homo sapiens; settings: Homo sapiens, A549;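 further: growth inhibition of A549 cells, read out with a cell viability assay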
Description: SANGER: Inhibition of human A549 cell growth in a cell viability assay.

NCI-H2122 = assay type: functional, cell-based, Homo sapiens; settings: Homo sapiens, NCI-H2122;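 further: growth inhibition of the cells, read out with a cell viability assay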
Description: SANGER: Inhibition of human NCI-H2122 cell growth in a cell viability assay.

LB771-HNC = assay type: functional, cell-based, Homo sapiens; settings: Homo sapiens, LB771-HNC;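 further: growth inhibition of LB771-HNC human cells, read out with a cell viability assay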
Description: SANGER: Inhibition of human LB771-HNC cell growth in a cell viability assay.

COLO-678 = assay type: functional, cell-based, Homo sapiens; settings: Homo sapiens, COLO-678
Description: SANGER: Inhibition of human COLO-678 cell growth in a cell viability assay.

HuP-T4 = assay type: functional, cell-based, Homo sapiens; settings: Homo sapiens, HuP-T4;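 further: cell viability assay measuring how much HuP-T4 cell growth is inhibited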
Description: SANGER: Inhibition of human HuP-T4 cell growth in a cell viability assay.

KINGS-1 = assay type: functional, cell-based, Homo sapiens; settings: Homo sapiens, KINGS-1;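 further: cell viability assay measuring suppression of KINGS-1 cell growth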
Description: SANGER: Inhibition of human KINGS-1 cell growth in a cell viability assay.

NCI-H441 = assay type: functional, cell-based, Homo sapiens; settings: Homo sapiens, NCI-H441;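 further: growth inhibition of NCI-H441 cells, read out with a cell viability assay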
Description: SANGER: Inhibition of human NCI-H441 cell growth in a cell viability assay.

SK-HEP1 = assay type: functional, cell-based, Homo sapiens, SK-HEP-1; settings: Homo sapiens, SK-HEP1;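 further: cell viability readout used to quantify reduction in proliferation of human SK-HEP-1 cells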
Description: SANGER: Inhibition of human SK-HEP-1 cell growth in a cell viability assay.

BCPAP = assay type: functional, cell-based, Homo sapiens; settings: Homo sapiens, BCPAP;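 further: growth inhibition of BCPAP cells, read out in a cell viability assay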
Description: SANGER: Inhibition of human BCPAP cell growth in a cell viability assay.

UACC-62 = assay type: functional, cell-based, Homo sapiens; settings: Homo sapiens, UACC-62;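 further: growth inhibition of human UACC-62 cells, read out by a cell viability assay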
Description: SANGER: Inhibition of human UACC-62 cell growth in a cell viability assay.

C8166 = assay type: functional, cell-based, Homo sapiens; settings: Homo sapiens, C8166;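 further: growth inhibition of human C8166 cells measured by a cell viability assay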
Description: SANGER: Inhibition of human C8166 cell growth in a cell viability assay.

Measured: IC50

COc1cc2c(Nc3ccc(NC(=O)c4ccccc4)cc3)ncnc2cc1OCCCN1CCOCC1
1.75 µM: NB7
0.224 µM: P12-Ichikawa
1.73 µM: CAL-33
2.64 µM: A549
3.2 µM: KG-1
1.95 µM: L-363
> 4 µM: LB1047-RCC | SNU-5 | MC116 | NCI-H2170 | HCE-4 | D-392MG | A204 | ACHN | SK-MEL-30 | M14 | SK-PN-DW | NCI-H358 | RVH-421 | SNB-75 | CP50-MEL-B | BFTC-909 | SW1463 | NCI-H1623 | EW-13 | ES7 | MG-63 | SK-N-DZ | KALS-1 | KYSE-270 | SNU-423 | NCI-H2122 | LB771-HNC | COLO-678 | HuP-T4 | KINGS-1 | NCI-H441 | SK-HEP1 | BCPAP | UACC-62 | C8166

Nc1cccc2c1CN(C1CCC(=O)NC1=O)C2=O (stereo not drawn) [LENALIDOMIDE]
> 5 µM: LB1047-RCC | SNU-5 | MC116 | NCI-H2170 | HCE-4 | D-392MG | A204 | ACHN | SK-MEL-30 | M14 | KG-1 | SK-PN-DW | NCI-H358 | RVH-421 | CAL-33 | SNB-75 | CP50-MEL-B | BFTC-909 | SW1463 | NCI-H1623 | EW-13 | ES7 | MG-63 | SK-N-DZ | KALS-1 | NB7 | KYSE-270 | P12-Ichikawa | SNU-423 | A549 | NCI-H2122 | COLO-678 | HuP-T4 | KINGS-1 | NCI-H441 | SK-HEP1 | BCPAP | UACC-62 | C8166
2.92 µM: L-363
2.15 µM: LB771-HNC

CC1(C)CNc2cc(NC(=O)c3cccnc3NCc3ccncc3)ccc21 [MOTESANIB]
0.549 µM: SK-N-DZ
0.519 µM: A204
> 2 µM: LB1047-RCC | SNU-5 | MC116 | NCI-H2170 | HCE-4 | D-392MG | ACHN | SK-MEL-30 | M14 | KG-1 | SK-PN-DW | NCI-H358 | RVH-421 | CAL-33 | SNB-75 | L-363 | CP50-MEL-B | BFTC-909 | SW1463 | NCI-H1623 | EW-13 | ES7 | MG-63 | KALS-1 | NB7 | KYSE-270 | P12-Ichikawa | SNU-423 | A549 | NCI-H2122 | LB771-HNC | COLO-678 | HuP-T4 | KINGS-1 | NCI-H441 | SK-HEP1 | BCPAP | UACC-62 | C8166
